Tested on: whitetail deer
Test: Free-choice consumption of repellent-adulterated salt by salt-deprived deer
Assay type: in vivo
Settings: mean per 48-hour provision, dry matter basis
Procedure: The products evaluated were three classes of commercially available, non-lethal repellents. Products that repel deer based on taste modification, chemical irritation and fear were evaluated. One gram of water was used to blend the dry repellents with loose salt in a V-mixer (tumble mixer). Liquid repellents were added directly to salt and blended using the V-mixer. After blending, the adulterated salt was weighed into labeled, channel-lock bags, sealed, and stored for eventual delivery to the test farm.
Testing was carried out at the farm of a whitetail deer farmer located in Indiana. The testing was carried out by both the farmer and a veterinarian. Approximately twelve deer that ranged in age from 1.5 to 3 years were used in the study. The deer appeared to be healthy at the beginning of the study and maintained satisfactory health during the completion of the study. Signs consistent with clinical disease were not observed, and medical treatments were not administered to any of the deer. The deer were divided into two groups and housed in two separate grass paddocks. Each paddock housed approximately six deer. The size of the paddocks was about 250 ft.×100 ft.
The deer used in the study were fed a diet that was devoid of supplemental salt. Feed was provided in plastic feeders on the ground and inside a wooden, three-sided feeding station that was constructed by the farm owner. Feeding stations were present in both paddocks. Salt was provided free-choice in shallow, black rubber pans, and the pans were housed in a raised, wooden trough that was mounted on the wall of the feeding station. Water was provided to the deer in round plastic containers located within the paddocks. Water and feed were provided to the deer by the farm owner.
Prior to initiation of the study, the salt-free diet and free-choice, unadulterated salt were provided to the deer for a period of one-week to permit acclimation to the feeding regimen. After initiation of the study, access to salt was restricted in an attempt to impose a state of salt deprivation in the deer. Free-choice, unadulterated salt was removed, and the deer were fed the diet deficient in salt for a period of 48 hours to induce salt deprivation. After 48 hours, free-choice salt containing the different repellents was provided. After 48 hours, salt containing the repellents was removed, and another 48-hour period of salt deprivation was imposed followed by provision of adulterated salt for another 48-hour period. The regimen of 48 hours of adulterated salt provision, 48 hours of salt deprivation was used throughout the study and constituted an experimental replication. A total of eight replications were completed for the chemical irritation and fear class of repellents. A total of seven replications were completed for the taste class of repellents.
The pans containing adulterated salt were randomly arranged in the raised, wooden trough on each replication to prevent the deer from becoming habituated to the placement of repellents in a particular position in the trough. A one-week period of access to unadulterated salt was permitted after the final replication of the respective classes of repellents was completed. The experimental period for each class of repellents varied between 28 and 32 days.
Absolute dry matter of unadulterated salt was determined by drying 1 gram samples in a 212° F. (100° C.) oven for a period of 24 hours. Dry matter of unadulterated salt was determined to be 99.8%. After collection of adulterated and unadulterated salt from the feeding stations, the salt was transferred to aluminum pans and dried in a 131° F. (55° C.) oven for 48 hours to determine physiologic dry matter.
Salt consumption was determined by calculating the difference between salt provided and salt collected after 48 hours. The data was converted to, and expressed on, a dry matter basis.
Consumption data for the two paddocks was merged for analysis. […]

[1] = taste repellents in free salt at Table 1 inclusion rates, seven replications

Compound: CC[N+](CC)(CC(=O)Nc1c(C)cccc1C)Cc1ccccc1 [Bitrex, Denatonium benzoate]
- Consumed [1]: 8.29 g

Compound: COc1cc(CNC(=O)CCCC/C=C/C(C)C)ccc1O [Capsaicin]
- Consumed (chemical irritation repellent, 0.007% by weight in salt, eight replications): 8.81 g
- Consumed (chemical irritation repellent, 0.07% by weight in salt, eight replications): 9.38 g

Compound: [Cl-].[Li+] [Lithium Chloride, Lithium chloride]
- Consumed (chemical irritation repellent, 0.38% by weight in salt, eight replications): 7.06 g

Compound: Acid casein
- Consumed [1]: 8.21 g

Compound: Rennet casein
- Consumed [1]: 10.43 g

Compound: Sodium caseinate
- Consumed [1]: 7.62 g

From patent publication US20120121680A1, “ANIMAL REPELLING DEICER” (NORTH AMERICAN SALT COMPANY, priority 2010, published 2012)
